Values after ≈ are worked out from the molar mass of the structure shown.
Experiments:
[1] = system: Escherichia coli; test: Antibacterial activity against Escherichia coli ATCC 25922 after 24 hrs by macrobroth dilution method; type: functional; conditions: ATCC 25922, 24 h
[2] = system: Escherichia coli; test: Antibacterial activity against gentamicin-resistant Escherichia coli ATCC 6174 after 24 hrs by macrobroth dilution method; type: functional; conditions: ATCC 6174, 24 h
[3] = system: Staphylococcus epidermidis; test: Antibacterial activity against Staphylococcus epidermidis ATCC 1490 after 24 hrs by macrobroth dilution method; type: functional; conditions: ATCC 1490, 24 h
[4] = system: Streptococcus pneumoniae; test: Antibacterial activity against […] Streptococcus pneumoniae ATCC 49619 after 24 hrs by macrobroth dilution method; type: functional; conditions: ATCC 49619, 24 h
[5] = system: Candida albicans; test: Antibacterial activity against Candida albicans; type: functional
[6] = system: Staphylococcus aureus; test: Antibacterial activity against Staphylococcus aureus ATCC 29213 after 24 hrs by macrobroth dilution method; type: functional; conditions: ATCC 29213, 24 h
[7] = system: Pseudomonas aeruginosa; test: Antibacterial activity against Pseudomonas aeruginosa ATCC 27853 after 24 hrs by macrobroth dilution method; type: functional; conditions: ATCC 27853, 24 h
[8] = system: Staphylococcus aureus; test: Antibacterial activity against methicillin-resistant Staphylococcus aureus ATCC 33592 after 24 hrs by macrobroth dilution method; type: functional; conditions: ATCC 33592, 24 h
[9] = system: Staphylococcus epidermidis; test: Antibacterial activity against methicillin-resistant Staphylococcus epidermidis ATCC 14990 after 24 hrs by macrobroth dilution method; type: functional; conditions: ATCC 14990, 24 h
[10] = system: Staphylococcus aureus; test: Antibacterial activity against methicillin-susceptible Staphylococcus aureus after 24 hrs by macrobroth dilution method; type: functional
[11] = system: Streptococcus pneumoniae; test: Antibacterial activity against Streptococcus pneumoniae ATCC 49619 after 24 hrs by macrobroth dilution method; conditions: ATCC 49619, 24 h
[12] = system: Staphylococcus aureus; test: Antibacterial activity against Staphylococcus aureus; type: functional
[13] = system: Staphylococcus aureus; test: Antibacterial activity against methicillin-resistant Staphylococcus aureus; type: functional
[14] = system: Escherichia coli; test: Antibacterial activity against Escherichia coli; type: functional

Row | Structure (SMILES) | MIC [1] | MIC [2] | MIC [3] | MIC [4] | MIC [5] | MIC [6] | MIC [7] | MIC [8] | MIC [9] | MIC [10] | MIC [11] | MIC [12] | MIC [13] | MIC [14]
1 | NC[C@@H]1O[C@H](O[C@H]2[C@@H](O)[C@H](O[C@@H]3[C@@H](O)[C@H](N)C[C@H](N)[C@H]3O[C@H]3O[C@H](CN)[C@@H](O)[C@H](O)[C@H]3N)O[C@@H]2CNC(=O)CCCc2ccc3ccc4cccc5ccc2c3c45)[C@H](N)[C@@H](O)[C@@H]1O | 32 µg/mL (≈ 36.2 µM) | 64 µg/mL (≈ 72.4 µM) | 2 µg/mL (≈ 2.26 µM) | > 512 µg/mL | ≥ 512 µg/mL | 16 µg/mL (≈ 18.1 µM) | 256 µg/mL (≈ 290 µM) | 256 µg/mL (≈ 290 µM) | 64 µg/mL (≈ 72.4 µM) | – | – | – | – | –
2 | CCCCCCCCCCCC(=O)O [DODECANOATE] | – | – | – | – | – | – | – | 400 µg/mL (≈ 2000 µM) | – | 400 µg/mL (≈ 2000 µM) | – | – | – | –
3 | CCCCCCCCCCCCCCCCCCCC(=O)NC[C@H]1O[C@@H](O[C@@H]2[C@@H](O)[C@H](N)C[C@H](N)[C@H]2O[C@H]2O[C@H](CN)[C@@H](O)[C@H](O)[C@H]2N)[C@H](O)[C@@H]1O[C@H]1O[C@@H](CN)[C@@H](O)[C@H](O)[C@H]1N | 128 µg/mL (≈ 141 µM) | 128 µg/mL (≈ 141 µM) | 4 µg/mL (≈ 4.4 µM) | 64 µg/mL (≈ 70.5 µM) | ≥ 512 µg/mL | 8 µg/mL (≈ 8.81 µM) | 64 µg/mL (≈ 70.5 µM) | 8 µg/mL (≈ 8.81 µM) | 4 µg/mL (≈ 4.4 µM) | – | – | – | – | –
4 | CCCCCC(=O)NC[C@H]1O[C@@H](O[C@@H]2[C@@H](O)[C@H](N)C[C@H](N)[C@H]2O[C@H]2O[C@H](CN)[C@@H](O)[C@H](O)[C@H]2N)[C@H](O)[C@@H]1O[C@H]1O[C@@H](CN)[C@@H](O)[C@H](O)[C@H]1N | 16 µg/mL (≈ 22.5 µM) | 16 µg/mL (≈ 22.5 µM) | 2 µg/mL (≈ 2.81 µM) | – | ≥ 512 µg/mL | 16 µg/mL (≈ 22.5 µM) | > 512 µg/mL | > 512 µg/mL | 32 µg/mL (≈ 45 µM) | – | 64 µg/mL (≈ 89.9 µM) | – | – | –
5 | C[C@@H](CCC(=O)NC[C@H]1O[C@@H](O[C@@H]2[C@@H](O)[C@H](N)C[C@H](N)[C@H]2O[C@H]2O[C@H](CN)[C@@H](O)[C@H](O)[C@H]2N)[C@H](O)[C@@H]1O[C@H]1O[C@@H](CN)[C@@H](O)[C@H](O)[C@H]1N)[C@@H]1CC[C@H]2[C@@H]3[C@@H](O)C[C@H]4C[C@@H](O)CC[C@@]4(C)[C@H]3C[C@@H](O)[C@]21C (stereo in doubt) | 32 µg/mL (≈ 31.9 µM) | 64 µg/mL (≈ 63.7 µM) | 8 µg/mL (≈ 7.97 µM) | > 256 µg/mL | ≥ 512 µg/mL | 16 µg/mL (≈ 15.9 µM) | > 256 µg/mL | 128 µg/mL (≈ 127 µM) | 16 µg/mL (≈ 15.9 µM) | – | – | – | – | –
6 | CCCCCCCCCCCC(=O)NC[C@H]1O[C@@H](O[C@@H]2[C@@H](O)[C@H](N)C[C@H](N)[C@H]2O[C@H]2O[C@H](CN)[C@@H](O)[C@H](O)[C@H]2N)[C@H](O)[C@@H]1O[C@H]1O[C@@H](CN)[C@@H](O)[C@H](O)[C@H]1N | 64 µg/mL (≈ 80.4 µM) | 64 µg/mL (≈ 80.4 µM) | 4 µg/mL (≈ 5.03 µM) | – | ≥ 512 µg/mL | 32 µg/mL (≈ 40.2 µM) | 256 µg/mL (≈ 322 µM) | > 512 µg/mL | 8 µg/mL (≈ 10.1 µM) | – | 128 µg/mL (≈ 161 µM) | – | – | –
7 | NC[C@@H]1O[C@H](O[C@H]2[C@@H](O)[C@H](O[C@@H]3[C@@H](O)[C@H](N)C[C@H](N)[C@H]3O[C@H]3O[C@H](CN)[C@@H](O)[C@H](O)[C@H]3N)O[C@@H]2CO)[C@H](N)[C@@H](O)[C@@H]1O [FRAMYCETIN] | 8 µg/mL (≈ 13 µM) | 4 µg/mL (≈ 6.51 µM) | 1 µg/mL (≈ 1.63 µM) | 64 µg/mL (≈ 104 µM) | ≥ 512 µg/mL | 2 µg/mL (≈ 3.25 µM) | 512 µg/mL (≈ 833 µM) | 256 µg/mL (≈ 416 µM) | 0.5 µg/mL (≈ 0.813 µM) | – | – | – | – | –
8 | CCCCCCCCCCCCC/C=C/[C@@H](O)[C@@H](N)CO [SPHINGOSINE] | – | – | – | – | 6 µg/mL (≈ 20 µM) | – | – | – | – | – | – | 2 µg/mL (≈ 6.68 µM) | 4 µg/mL (≈ 13.4 µM) | 42 µg/mL (≈ 140 µM)
9 | CCCCCCCCCCCCCCCC(=O)NC[C@H]1O[C@@H](O[C@@H]2[C@@H](O)[C@H](N)C[C@H](N)[C@H]2O[C@H]2O[C@H](CN)[C@@H](O)[C@H](O)[C@H]2N)[C@H](O)[C@@H]1O[C@H]1O[C@@H](CN)[C@@H](O)[C@H](O)[C@H]1N | 32 µg/mL (≈ 37.6 µM) | 64 µg/mL (≈ 75.1 µM) | 2 µg/mL (≈ 2.35 µM) | – | ≥ 512 µg/mL | 4 µg/mL (≈ 4.69 µM) | 128 µg/mL (≈ 150 µM) | 8 µg/mL (≈ 9.39 µM) | 2 µg/mL (≈ 2.35 µM) | – | 64 µg/mL (≈ 75.1 µM) | – | – | –

From ChEMBL document CHEMBL1140095, “Design, synthesis, and antibacterial activities of neomycin-lipid conjugates: polycationic lipids with potent gram-positive activity” (2008)
